Measurements from US20100280019A1, “ISOXAZOLES” (priority 2009, published 2010).

Target: T1, GABA A α5 (human receptors of composition α5β3γ2) (Homo sapiens, UniProt P18507+P31644)
T1 construct: expressed in transfected cells; host or cells: HEK293, transiently transfected; membranes prepared from cell pellets
Assay: [3H]flumazenil competition binding, HEK293 cells expressing human GABA A α5β3γ2 receptors
Details: [3H]-Flumazenil 0.5 nM, means of two determinations, read-out: hKi (GABA Aα5)
Protocol: The affinity of compounds at GABA A receptor subtypes was measured by competition for [^3H]flumazenil (85 Ci/mmol; Roche) binding to HEK293 cells expressing rat (stably transfected) or human (transiently transfected) receptors of composition α1β3γ2, α2β3γ2, α3β3γ2 and α5β3γ2.
Cell pellets were suspended in Krebs-tris buffer (4.8 mM KCl, 1.2 mM CaCl2, 1.2 mM MgCl2, 120 mM NaCl, 15 mM Tris; pH 7.5; binding assay buffer), homogenized by polytron for ca. 20 sec on ice and centrifuged for 60 min at 4° C. (50000 g; Sorvall, rotor: SM24=20000 rpm). The cell pellets were resuspended in Krebs-tris buffer and homogenized by polytron for ca. 15 sec on ice. Protein was measured (Bradford method, Bio-Rad) and aliquots of 1 mL were prepared and stored at −80° C.
Radioligand binding assays were carried out in a volume of […] (96-well plates) which contained […] of cell membranes, [^3H]-Flumazenil at a concentration of 1 nM for α1, α2, α3 subunits and 0.5 nM for α5 subunits and the test compound in the range of […]. Nonspecific binding was defined by 10^−5 M diazepam and typically represented less than 5% of the total binding. Assays were incubated to equilibrium for 1 hour at 4° C. and harvested onto GF/C uni-filters (Packard) by filtration using a Packard harvester and washing with ice-cold wash buffer (50 mM Tris; pH 7.5). After drying, filter-retained radioactivity was detected by liquid scintillation counting. Ki values were calculated using Excel-Fit (Microsoft) and are the means of two determinations.
Representative test results, obtained by the above described assay measuring binding affinity to HEK293 cells expressing human (h) receptors, are shown in table 1 below.

Structure (SMILES) | Ki
Cc1onc(-c2ccccc2)c1COc1ccc(C(=O)NN)cn1 [Example 1, 6-((5-Methyl-3-phenyl-isoxazol-4-yl)-methoxy)-nicotinic acid hydrazide] | 5.4 nM
Cc1onc(-c2ccccc2)c1COc1ccc(C(=O)NN2CCCCC2)cn1 [Example 3, 6-((5-Methyl-3-phenyl-isoxazol-4-yl)-methoxy)-N-piperidin-1-yl-nicotinamide] | 4 nM
Cc1onc(-c2ccccc2)c1COc1ccc(C(=O)NN2CCS(=O)(=O)CC2)cn1 [Example 5, N-(1,1-Dioxo-1,6-thiomorpholin-4-yl)-6-((5-methyl-3-phenyl-isoxazol-4-yl)-methoxy)-nicotinamide] | 2.6 nM
Cc1onc(-c2ccccc2)c1COc1ccc(C(=O)NNS(C)(=O)=O)cn1 [Example 6, 6-((5-Methyl-3-phenyl-isoxazol-4-yl)-methoxy)-nicotinic acid N′-(methylsulfonyl)-hydrazide] | 4.8 nM
Cc1onc(-c2ccccc2)c1COc1ccc(C(=O)NN2CCOCC2)nn1 [Example 11, 6-((5-Methyl-3-phenyl-isoxazol-4-yl)-methoxy)-pyridazine-3-carboxylic acid morpholin-4-ylamide] | 9.5 nM

More lines, now with the values ahead:

Ki | Structure (SMILES)
0.6 nM | Cc1onc(-c2ccccc2)c1COc1ccc(C(=O)NN2CCOCC2)cn1 [Example 2, 6-((5-Methyl-3-phenyl-isoxazol-4-yl)-methoxy)-N-morpholin-4-yl-nicotinamide]
2.6 nM | Cc1onc(-c2ccccc2)c1COc1ccc(C(=O)NN2CCCC2)cn1 [Example 4, 6-((5-Methyl-3-phenyl-isoxazol-4-yl)-methoxy)-N-pyrrolidin-1-yl-nicotinamide]
0.4 nM | Cc1onc(-c2ccc(F)cn2)c1COc1ccc(C(=O)NN2CCOCC2)cn1 [Example 7, 6-[(3-(5-Fluoro-pyridin-2-yl)-5-methyl-isoxazol-4-yl)-methoxy]-N-morpholin-4-yl-nicotinamide]
6.4 nM | CCCCc1noc(C)c1COc1ccc(C(=O)NN2CCOCC2)cn1 [Example 8, 6-((3-Butyl-5-methyl-isoxazol-4-yl)-methoxy)-N-morpholin-4-yl-nicotinamide]
19.4 nM | CCCCc1noc(C)c1COc1ccc(C(=O)NN2CCCC2)cn1 [Example 9, 6-((3-Butyl-5-methyl-isoxazol-4-yl)-methoxy)-N-pyrrolidin-1-yl-nicotinamide]
18.7 nM | CCCCc1noc(C)c1COc1ccc(C(=O)NN(C)C)cn1 [Example 10, 6-((3-Butyl-5-methyl-isoxazol-4-yl)-methoxy)-nicotinic acid 2,2-dimethyl-hydrazide]
